Assay results as given in PMC12179625, “Development of an LC-MS/MS method for quantification of colistin and colistin methanesulfonate in human plasma and its application to stability studies and therapeutic drug monitoring” (Journal of Mass Spectrometry and Advances in the Clinical …, 2025).
Like-named read-outs stand apart in the source and are kept apart here. Where a SMILES comes first, the peptide text is derived from it. Bridges are numbered along the chain shown (N, C = ends). [ ]: non-standard residue; d: D form. The star is where a group is joined. Heptanoyl(6-Me) = CC(C)CCCCC(=O)*; X1 = CC[C@H](C)CCCCC(=O)*; Dab = NCC[C@H](N)C(=O)O

Experiments:
[1] = Stability of colistin A and colistin B in plasma samples; format: in vitro ADME; conditions: spiked human plasma, accuracy vs theoretical concentration, LC-MS/MS, mean ± SD, n = 3; for −80 °C freeze–thaw 3 times: three freeze–thaw cycles −80 °C to room temperature
Protocol: The calibration standard samples and QC samples were both obtained by diluting the corresponding working solution with blank plasma at a ratio of 1:19. The concentrations of the calibration standard samples were 0.10, 0.25, 0.50, 1.0, 2.5, 5.0, 8.0 and 10 μg/mL while the concentrations of the QC samples were 0.10 (LLOQ), 0.30 (LQC), 2.0 (MQC), 7.5 (HQC), and 30 (DQC) μg/mL.
(§1) The SPE column was activated by using 1 mL of methanol followed by 2 mL of ultrapure water. Subsequently, 200 μL of either calibration standard samples, QC samples, or patient plasma samples were mixed with 100 μL of IS working solution and 700 μL of 1.43 % ammonia, This step is to ensure that the solution is in a non-acidic environment. This mixture was thoroughly vortexed to ensure homogeneity. The mixed samples were then loaded onto the Welch BRP SPE columns. After sequentially washing the column with a total of 4 mL of 1 % ammonia, the analytes were eluted twice with 200 μL of […] (30:70, v/v) containing 4 % formic acid. Ultimately, 400 μL total eluate was collected and analyzed by LC-MS/MS.
(§2) This study investigated the stability of colistin A and colistin B during the assay process, including the stability of plasma samples at room temperature for 24 h, the stability through three cycles of repeated freeze–thaw from −80 °C to room temperature, the stability during storage at −80 °C for three months, and the autosampler stability of processed samples at 4°C for 24 h. Three parallel samples were prepared for each condition. If the accuracy of the samples under storage conditions is within 85 % to 115 %, the stability is considered acceptable.

[2] = Autosampler stability of processed colistin samples; format: physicochemical; conditions: autosampler 4 °C, accuracy, LC-MS/MS, mean ± SD, n = 3
Protocol: as §1, §2

[3] = cited from earlier work
Protocol: The concentration–time curves and PK parameters of colistin and CMS are shown in Fig. 6 and Table 5, respectively. A total of three patients treated with CMS for carbapenem-resistant Gram-negative bacterial infections were included in this study (Ethical approval number: TJ-IRB20220737). The measured trough concentrations of colistin (Cmin) ranged from 0.97 μg/mL to 2.84 μ g/mL, and the average Cmin was 1.61 ± 1.06 μ g/mL.

[4] = Pharmacokinetics / TDM of CMS and colistin in patient plasma; format: in vivo, human; conditions: for AUC(0-t): 150 mg CBA
Protocol: as §1
The concentration of CMS was determined by calculating the difference between the concentration of total colistin after complete in vitro conversion and the concentration of free colistin in vivo. In vitro conversion of CMS was performed by sulfuric acid hydrolysis. Samples were processed as follows: 25 μL of 1 mol/L H2SO4 was added to a tube containing 200 μL of patient plasma sample and 100 μL of IS working solution, acidified at room temperature on a shaker for 1 h, and then 50 μL of 1 mol/L NaOH was added to neutralize the acid hydrolysis to maintain the pH of the final solution in the range of 7.0–7.5. After vortex mixing, 625 μL of 1.43 % ammonia solution was added and mixed thoroughly. After this conversion process, the concentration of total colistin was determined as free colistin described above.
The study included three patients infected with carbapenem-resistant Gram-negative bacteria. The patients provided informed consent, and the research project was carried out following the regulations of the Ethics Committee (Ethical approval number: TJ-IRB20220737) of Tongji Medical College, Huazhong University of Science and Technology. The physician prescribed a weight-based dosing regimen with a 300 mg loading dose of colistin base activity (CBA) and a maintenance dose of 150 mg CBA. The sample collection for this session took place during the administration of the fourth dose. […] Blood samples were collected by EDTA tubes and placed on ice and transported to the lab within 2 h. The samples were centrifuged at a speed of 1000 g for 10 min at 4°C and the supernatant was stored at −20 °C for subsequent sample preparation.
Pharmacokinetic parameters, including area under the concentration–time curve from 0 to the last measurable time point (AUC0-t) and from 0 to infinity (AUC0-∞), peak concentration (Cmax), time to reach peak concentration (Tmax), elimination half-life (t1/2), apparent volume of distribution (V), apparent total clearance (CL), and mean residence time (MRT0-∞) were calculated using DAS 2.0 (Shanghai University of TCM, China).

[5] = SPE eluate (acetonitrile 30:70 with 4 % formic acid) of HQC 7.5 μg/mL plasma
[6] = SPE eluate (acetonitrile 30:70 with 4 % formic acid) of LQC 0.30 μg/mL plasma
[7] = CMS infusion, 150 mg CBA maintenance, fourth dose, plasma, LC-MS/MS, patient 1
[8] = CMS infusion, 150 mg CBA maintenance, fourth dose, plasma, LC-MS/MS, patient 2
[9] = CMS infusion, 150 mg CBA maintenance, fourth dose, plasma, LC-MS/MS, patient 3

CC[C@H](C)CCCCC(=O)N[C@@H](CCN)C(=O)N[C@H](C(=O)N[C@@H](CCN)C(=O)N[C@H]1CCNC(=O)[C@H]([C@@H](C)O)NC(=O)[C@H](CCN)NC(=O)[C@H](CCN)NC(=O)[C@H](CC(C)C)NC(=O)[C@@H](CC(C)C)NC(=O)[C@H](CCN)NC1=O)[C@@H](C)O [Colistin A, colistin A] (X1-[Dab]T[Dab][Dab][Dab][dL]L[Dab][Dab]T; lactam 4-C)
Frozen at −80 °C for 3 months ([1]; HQC 7.5 μg/mL): 101.24 ± 1.46%
Room temperature 24 h ([1]; HQC 7.5 μg/mL): 91.48 ± 3.06%
−80 °C freeze–thaw 3 times ([1]; HQC 7.5 μg/mL): 93.04 ± 1.97%
Frozen at −80 °C for 3 months ([1]; LQC 0.30 μg/mL): 98.31 ± 5.04%
Room temperature 24 h ([1]; LQC 0.30 μg/mL): 104.77 ± 4.59%
−80 °C freeze–thaw 3 times ([1]; LQC 0.30 μg/mL): 106.19 ± 2.48%
Processed sample In the sampler at 4 °C for 24 h [2, 5]: 100.74 ± 4.06%
Processed sample In the sampler at 4 °C for 24 h [2, 6]: 102.44 ± 1.43%

CC(C)CCCCC(=O)N[C@@H](CCN)C(=O)N[C@H](C(=O)N[C@@H](CCN)C(=O)N[C@H]1CCNC(=O)[C@H]([C@@H](C)O)NC(=O)[C@H](CCN)NC(=O)[C@H](CCN)NC(=O)[C@H](CC(C)C)NC(=O)[C@@H](CC(C)C)NC(=O)[C@H](CCN)NC1=O)[C@@H](C)O [Colistin B, colistin B] ({Heptanoyl(6-Me)}-[Dab]T[Dab][Dab][Dab][dL]L[Dab][Dab]T; lactam 4-C)
Frozen at −80 °C for 3 months ([1]; HQC 7.5 μg/mL): 98.76 ± 4.29%
Room temperature 24 h ([1]; HQC 7.5 μg/mL): 99.39 ± 1.70%
−80 °C freeze–thaw 3 times ([1]; HQC 7.5 μg/mL): 99.13 ± 6.46%
Frozen at −80 °C for 3 months ([1]; LQC 0.30 μg/mL): 109.29 ± 3.71%
Room temperature 24 h ([1]; LQC 0.30 μg/mL): 110.01 ± 3.95%
−80 °C freeze–thaw 3 times ([1]; LQC 0.30 μg/mL): 110.17 ± 4.65%
Processed sample In the sampler at 4 °C for 24 h [2, 5]: 106.46 ± 6.48%
Processed sample In the sampler at 4 °C for 24 h [2, 6]: 108.54 ± 3.07%

CC[C@H](C)CCCCC(=O)N[C@@H](CCN)C(=O)N[C@H](C(=O)N[C@@H](CCN)C(=O)N[C@H]1CCNC(=O)[C@H]([C@@H](C)O)NC(=O)[C@H](CCN)NC(=O)[C@H](CCN)NC(=O)[C@H](CC(C)C)NC(=O)[C@@H](CC(C)C)NC(=O)[C@H](CCN)NC1=O)[C@@H](C)O [Colistin, colistin] (X1-[Dab]T[Dab][Dab][Dab][dL]L[Dab][Dab]T; lactam 4-C)
Tmax ([3]; healthy subjects): 2 h
half-life ([3]; healthy volunteers, ref Couet W et al., 31): 3.0 ± 0.6 h
AUC0-12h [4, 7]: 18.73 µg·h/mL
AUC0-24h [4, 7]: 37.48 µg·h/mL
AUC0-∞ [4, 7]: 31.44 µg·h/mL
CL (apparent total clearance) [4, 7]: 4.77 L/h
Cmax [4, 7]: 2.08 µg/mL
Cmin [4, 7]: 0.97 µg/mL
Css [4, 7]: 1.56 µg/mL
MRT0-∞ (mean residence time) [4, 7]: 13.34 h
Tmax [4, 7]: 2.00 h
Vz (apparent volume of distribution) [4, 7]: 62.61 L
t1/2 (elimination half-life) [4, 7]: 9.09 h
AUC0-12h [4, 8]: 43.03 µg·h/mL
AUC0-24h [4, 8]: 85.74 µg·h/mL
AUC0-∞ [4, 8]: 105.17 µg·h/mL
CL (apparent total clearance) [4, 8]: 1.43 L/h
Cmax [4, 8]: 4.52 µg/mL
Cmin [4, 8]: 2.84 µg/mL
Css [4, 8]: 3.57 µg/mL
MRT0-∞ (mean residence time) [4, 8]: 22.04 h
Tmax [4, 8]: 2.00 h
Vz (apparent volume of distribution) [4, 8]: 30.93 L
t1/2 (elimination half-life) [4, 8]: 15.03 h
AUC0-12h [4, 9]: 18.49 µg·h/mL
AUC0-24h [4, 9]: 37.08 µg·h/mL
AUC0-∞ [4, 9]: 25.18 µg·h/mL
CL (apparent total clearance) [4, 9]: 5.96 L/h
Cmax [4, 9]: 2.45 µg/mL
Cmin [4, 9]: 1.04 µg/mL
Css [4, 9]: 1.55 µg/mL
MRT0-∞ (mean residence time) [4, 9]: 10.86 h
Tmax [4, 9]: 3.00 h
Vz (apparent volume of distribution) [4, 9]: 49.04 L
t1/2 (elimination half-life) [4, 9]: 5.71 h
AUC0-24h ([4]; first of the three patients): 37.43 µg·h/mL
Css,avg ([4]; first of the three patients): 1.56 µg/mL
AUC(0-t) ([4]; human, in vivo, iv, patients on CMS infusion (300 mg CBA loading, 150 mg CBA maintenance), fourth dose, plasma, SPE LC-MS/MS, DAS 2.0, mean ± SD of 3 patients, SD, read-out: AUC0-12h): 26.8 ± 14.1 µg·h/mL
AUC(0-t) ([4]; human, in vivo, iv, patients on CMS infusion (300 mg CBA loading, 150 mg CBA maintenance), fourth dose, plasma, SPE LC-MS/MS, DAS 2.0, mean ± SD of 3 patients, SD, read-out: AUC0-24h): 53.4 ± 28 µg·h/mL
AUC(0-inf) ([4]; human, in vivo, iv, patients on CMS infusion (300 mg CBA loading, 150 mg CBA maintenance), fourth dose, plasma, SPE LC-MS/MS, DAS 2.0, mean ± SD of 3 patients, SD): 53.9 ± 44.5 µg·h/mL
clearance ([4]; human, in vivo, iv, patients on CMS infusion (300 mg CBA loading, 150 mg CBA maintenance), fourth dose, plasma, SPE LC-MS/MS, DAS 2.0, mean ± SD of 3 patients, SD, read-out: CL (apparent total clearance) (converted)): 67.5 mL/min
MRT ([4]; human, in vivo, iv, patients on CMS infusion (300 mg CBA loading, 150 mg CBA maintenance), fourth dose, plasma, SPE LC-MS/MS, DAS 2.0, mean ± SD of 3 patients, SD, read-out: MRT0-∞ (mean residence time)): 15.4 ± 5.87 h
Vd ([4]; human, in vivo, iv, patients on CMS infusion (300 mg CBA loading, 150 mg CBA maintenance), fourth dose, plasma, SPE LC-MS/MS, DAS 2.0, mean ± SD of 3 patients, SD, read-out: Vz (apparent volume of distribution)): 47.5 ± 15.9 L
half-life ([4]; human, in vivo, iv, patients on CMS infusion (300 mg CBA loading, 150 mg CBA maintenance), fourth dose, plasma, SPE LC-MS/MS, DAS 2.0, mean ± SD of 3 patients, SD, read-out: t1/2 (elimination half-life) (converted)): 9.94 ± 4.72 h
Cmax ([4]; human, in vivo, iv, patients on CMS infusion (300 mg CBA loading, 150 mg CBA maintenance), fourth dose, plasma, SPE LC-MS/MS, mean ± SD of 3 patients, SD, read-out: Cmax): 3.01 ± 1.32 µg/mL
Tmax ([4]; human, in vivo, iv, patients on CMS infusion (300 mg CBA loading, 150 mg CBA maintenance), fourth dose, plasma, SPE LC-MS/MS, mean ± SD of 3 patients, SD, read-out: Tmax): 2.33 ± 0.58 h
time at which peak concentration (Cmax) was reached ([4]; in words, three patients, CMS infusion (1 h)): at 1-hour post-infusion
Css ([4]; patients on CMS infusion (300 mg CBA loading, 150 mg CBA maintenance), fourth dose, plasma, SPE LC-MS/MS, DAS 2.0, mean ± SD of 3 patients, SD): 2.23 ± 1.17 µg/mL
Cmin ([4]; patients on CMS infusion (300 mg CBA loading, 150 mg CBA maintenance), fourth dose, plasma, SPE LC-MS/MS, mean ± SD of 3 patients, SD): 1.61 ± 1.06 µg/mL
AUC0-24h ([4]; second of the three patients): 86.05 µg·h/mL
AUC0-24h ([4]; third of the three patients): 36.98 µg·h/mL

colistin methanesulfonate [CMS]
Tmax ([3]; human, in vivo): 1 h
half-life ([3]; human, in vivo): 2.0 ± 0.12 h
CL (apparent total clearance) ([4]; human, in vivo, iv, SD): 6.87 ± 1.38 L/h
Tmax ([4]; human, in vivo, iv, SD): 1.33 ± 0.58 h
Vz (apparent volume of distribution) ([4]; human, in vivo, iv, SD): 14.11 ± 2.39 L
t1/2 (elimination half-life) ([4]; human, in vivo, iv, SD): 1.50 ± 0.57 h
